Assay results: PMC5789148, “Embelin Restores Carbapenem Efficacy against NDM-1-Positive Pathogens” (Frontiers in Microbiology, 2018)

Assays:
Type in all cases: biochemical
[1] = biological target: T1, NDM-1 (New Delhi metallo-β-lactamase-1) (Klebsiella pneumoniae, UniProt C7C422); test: single-concentration ([…]) meropenem hydrolysis screen with purified NDM-1; conditions: read-out: % inhibition at 20 μM
T1 construct: gene blaNDM-1

[2] = biological target: T1, NDM-1 (New Delhi metallo-β-lactamase-1); test: meropenem hydrolysis inhibition with purified NDM-1, […] nm (IC50 […])
IMP-1 = IMP-1 (Serratia marcescens, UniProt P52699); test: meropenem hydrolysis inhibition assay
Chain of IMP-1 (P52699 19-246 limits assumed): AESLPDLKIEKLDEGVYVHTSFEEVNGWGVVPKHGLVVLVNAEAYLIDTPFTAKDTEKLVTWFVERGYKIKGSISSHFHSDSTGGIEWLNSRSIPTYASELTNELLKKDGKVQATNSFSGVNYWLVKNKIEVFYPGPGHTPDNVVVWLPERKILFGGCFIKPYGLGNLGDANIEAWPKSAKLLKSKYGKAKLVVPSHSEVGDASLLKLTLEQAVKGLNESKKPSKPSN

VIM-1 = VIM-1 (Pseudomonas aeruginosa, UniProt A0A0F7KYQ8); test: meropenem hydrolysis inhibition assay

T1 sequence (C7C422 29-270 limits assumed): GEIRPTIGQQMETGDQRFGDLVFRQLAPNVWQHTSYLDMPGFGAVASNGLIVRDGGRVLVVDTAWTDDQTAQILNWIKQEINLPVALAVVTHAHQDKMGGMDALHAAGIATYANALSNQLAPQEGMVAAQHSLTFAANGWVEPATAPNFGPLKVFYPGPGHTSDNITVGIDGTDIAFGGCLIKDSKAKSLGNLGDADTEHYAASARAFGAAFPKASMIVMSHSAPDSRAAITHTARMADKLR

Compound	inhibition at 20 µM [1] [%]	Ki [2] [µM]	IC50 (IMP-1) [µM]	IC50 (VIM-1) [µM]
Oc1ccc(/C=C/c2cc(O)cc(O)c2)cc1 [resveratrol]	> 20			
CCCCCCCCCCCC1=C(O)C(=O)C=C(O)C1=O [embelin]		0.19 ± 0.02	~100	~200
COc1cc(/C=C/C(=O)CC(=O)/C=C/c2ccc(O)c(OC)c2)ccc1O [curcumine]	> 20			
